Data taken from patent US20150289512A1, “METHOD FOR PROMOTING PLANT GROWTH” (SUMITOMO CHEMICAL COMPANY, LIMITED, priority 2012, published 2015).

What was measured:
Type in all cases: in vivo
[1] = tested on: Rice (variety: Nipponbare); assay: Test Example 2: promotion of root growth by hydroponics of rice, 1 ppm; details: hydroponic solution containing the test compound at 1 ppm, average of 4 or 5 individuals; for change in vivo at 1 ppm: Oryza sativa, read-out: Relative value of length of seminal root (%-untreated control plot)
Protocol: (§1) Test for Evaluating Promotion of Root Growth by Hydroponics of Rice
(§2) Rice (variety: Nipponbare)
A DMSO solution, which contained one of the compounds 1, 3, 11, 12, 14, 15, 17, 21, 28, 30, 33, 34, 35, 36, 37, 38, 40, 41, 43, 44, 45, 46, 47, 49, 50, 51, 52, 53, 54, 55, 56, 61, 62, 63, 65, 67, 68, 69, 70, 73, 74, 75, 76, 77, 80, 82, 83, 85 and 86 of the present invention at a concentration of 10,000 ppm, was added to Hoagland hydroponic solution (Hoagland and Arnon, California Agricultural Experiment Station 1950 Circular 347 pp. 34) of ¼-fold concentration at a volume ratio of 1/10,000. In this manner, hydroponic solutions containing one of the compounds 1, 3, 11, 12, 14, 15, 17, 21, 28, 30, 33, 34, 35, 36, 37, 38, 40, 41, 43, 44, 45, 46, 47, 49, 50, 51, 52, 53, 54, 55, 56, 61, 62, 63, 65, 67, 68, 69, 70, 73, 74, 75, 76, 77, 80, 82, 83, 85 and 86 of the present invention at 1 ppm were prepared respectively. As an untreated control plot, a hydroponic solution obtained by adding DMSO to Hoagland hydroponic solution of ¼-fold concentration at a volume ratio of 1/10,000 was used. Rice seeds were soaked in a 1% aqueous sodium hypochlorite solution for 10 minutes, then soaked in a 70% ethanol solution for surface sterilization, and then washed with distilled water. The sterilized seeds were soaked in a hydroponic solution containing the test compound described above at 1 ppm and incubated in a dark place for 3 days at 28° C. to perform treatment for hastening germination.
(§3) Thereafter, 30 ml of hydroponic solution containing the test compound at 1 ppm was dispensed in a plastic tube (diameter of 20 mm×height of 113 mm) of which the side was covered with cardboard to block light. A float prepared using a styrene board and vinyl mesh was floated, and the rice seeds that had undergone the treatment for hastening germination were placed on the float on the surface of the hydroponic solution. The seeds were cultivated for 3 days at 26° C., an illuminance of 4,000 lux of the top surface of the tube, a humidity of 50%, and a day length of 16 hours.
The nursery plants of rice obtained after cultivation were measured in terms of the length of seminal root by using WinRHIZO system (manufactured by Regent Instruments Inc). For each test plot, an average of the measured values of the seminal root of 4 or 5 individuals was determined.

Nicotiana benthamiana = assay: Test Example 4: growth promotion under low-temperature stress by hydroponics of Nicotiana benthamiana, 10 ppm; details: 10 ppm in medium, low-temperature stress 7 days at 1.5±1.0° C., green leaf area 3 days later, equation (1)
Protocol: Test for Evaluating Growth Promotion Under Low-Temperature Stress by Hydroponics of Nicotiana benthamiana
A DMSO solution, which contained one of the compounds 1, 8, 9, 13, 18, 19, 22, 23, 29, 32, 33, 34, 39, 40, 41, 43, 44, 51, 53, 54, 55, 56, 58, 60, 62, 63, 64, 65, 67, 69, 71, 73, 74, 75, 77, 79, 82, 83 and 86 of the present invention at a concentration of 10,000 ppm, was prepared. The DMSO solution of the compound of the present invention was added at a volume ratio of 1/1,000 to the Murashige•Scoog medium of a ½-fold concentration (a medium containing 2.3 g of mixed salts for the Murashige•Scoog medium (manufactured by Wako Pure Chemical Industries, Ltd.), 200 mg of Myo-inositol (manufactured by Sigma-Aldrich Co. LLC.), 2 mg of nicotinic acid (manufactured by Wako Pure Chemical Industries, Ltd.), 2 mg of pyridoxine hydrochloride (manufactured by Wako Pure Chemical Industries, Ltd.), 20 mg of thiamine hydrochloride (manufactured by Wako Pure Chemical Industries, Ltd.), 20 g of sucrose (manufactured by Wako Pure Chemical Industries, Ltd.), and 1 g of MES (manufactured by DOJINDO LABORATORIES) per 1 L of water and having pH adjusted to 5.8), thereby preparing a medium containing the compound of the present invention at a concentration of 10 ppm.
Seeds of Nicotiana benthamiana were seeded in the 5 μL of the medium and cultured overnight at 22° C. Thereafter, 45 μL of the medium containing the compound of the present invention at a concentration of 10 ppm was added thereto, and the seeds are cultivated for 7 days at 22° C., an illuminance of 4,000 lux, and a day length of 16 hours, and the nursery plants raised from the Nicotiana benthamiana were treated with the compound. Moreover, instead of the above medium, a test plot, which was obtained by performing the same treatment by using a medium prepared by adding DMSO to the Murashige•Scoog medium of ½-fold concentration at a volume ratio of 1/1,000, was used as a control plot not treated with the compound.
The nursery plants of the Nicotiana benthamiana treated with the compound were subjected to low-temperature treatment by being cultivated for 7 days at 1.5±1.0° C., an illuminance of 2,000 lux, and a day length of 16 hours.
The nursery plants of the Nicotiana benthamiana having undergone the low-temperature stress treatment were cultivated for 3 days at 22° C., an illuminance of 4,000 lux, and a day length of 16 hours. Thereafter, the area of green leaf was quantified by Scanalyzer HTS (manufactured by LemnaTec GmbH). Moreover, the value of the control plot not treated with the compound that had not yet been subjected to the low-temperature stress treatment was measured in the same manner. A value of a relative leaf area was calculated based on the following equation (1), and if the value of a relative leaf area was 5 or greater, the compound was evaluated to have a mitigating effect. As a result of the evaluation, it was confirmed that when the plant was treated with one of the compounds 1, 8, 9, 13, 18, 19, 22, 23, 29, 32, 33, 34, 39, 40, 41, 43, 44, 51, 53, 54, 55, 56, 58, 60, 62, 63, 64, 65, 67, 69, 71, 73, 74, 75, 77, 79, 82, 83 and 86 of the present invention at 10 ppm, the value of a relative leaf area was 5 or greater, compared to the area of green leaf of the control plot not treated with compound. Accordingly, it was confirmed that the treatment using the compound of the present invention brings about a growth promotion effect.
Relative leaf area=100*(a green area of a plot treated with the compound of the present invention−a green area of a control plot not treated with the compound of the present invention)/(a green area of a control plot not treated with the compound of the present invention that has not yet been subjected to low-temperature stress treatment−a green area of a control plot not treated with the compound of the present invention) Equation (1): […]

[2] = tested on: Rice (variety: Nipponbare); assay: Test Example 1: promotion of root growth by hydroponics of rice, 10 ppm; details: hydroponic solution containing the test compound at 10 ppm, average of 4 or 5 individuals; for change in vivo at 10 ppm: Oryza sativa, read-out: Relative value of length of seminal root (%-untreated control plot)
Protocol: as §1, §2
(§4) Rice seeds were soaked in a 1% aqueous sodium hypochlorite solution for 10 minutes, then soaked in a 70% ethanol solution for surface sterilization, and then washed with distilled water. The sterilized seeds were soaked in a hydroponic solution containing the test compound described above at 10 ppm and incubated in a dark place for 3 days at 28° C. to perform treatment for hastening germination.
as §3, with “at 10” for “at 1”
(§5) The nursery plants of rice obtained after culturing were measured in terms of the length of seminal root by using WinRHIZO system (manufactured by Regent Instruments Inc). For each test plot, an average of the measured values of the seminal root of 4 or 5 individuals was determined.

[3] = tested on: Rice (variety: Nipponbare); assay: Test Example 3: promotion of root growth by hydroponics of rice, 0.1 ppm; details: Oryza sativa, hydroponic solution containing the test compound at 0.1 ppm, average of 4 or 5 individuals, read-out: Relative value of length of seminal root (%-untreated control plot)
Protocol: as §1, §2
A DMSO solution, which contained one of the compounds 2, 6, 7, 16, 20, 33, 34, 36, 37, 38, 40, 41, 43, 44, 45, 46, 47, 48, 50, 51, 52, 53, 54, 55, 56, 61, 64, 67, 68, 71, 72, 73, 74, 75, 76, 79, 80, 81 and 83 of the present invention at a concentration of 1,000 ppm, was added to Hoagland hydroponic solution (Hoagland and Arnon, California Agricultural Experiment Station 1950 Circular 347 pp. 34) of ¼-fold concentration at a volume ratio of 1/10,000. In this manner, hydroponic solutions containing one of the compounds 2, 6, 7, 16, 20, 33, 34, 36, 37, 38, 40, 41, 43, 44, 45, 46, 47, 48, 50, 51, 52, 53, 54, 55, 56, 61, 64, 67, 68, 71, 72, 73, 74, 75, 76, 79, 80, 81 and 83 of the present invention at 0.1 ppm were prepared respectively. As an untreated control plot, a hydroponic solution obtained by adding DMSO to Hoagland hydroponic solution of ¼-fold concentration at a volume ratio of 1/10,000 was used.
as §4, with “at 0.1” for “at 10”
as §3, with “at 0.1” for “at 1”
as §5

SMILES	change in vivo at 1 ppm [1] [%]	change in vivo at 10 ppm [2] [%]	further results
COC(=O)c1cc2ccccc2n1C [Compound 15]	> 5		
O=C(O)c1nc2ccccc2[nH]1 [Compound 18]		> 5	relative leaf area at 10 ppm (Nicotiana benthamiana): ≥ 5%
CCOC(=O)c1cc2ccc(C(F)(F)F)cc2o1 [Compound 46]	> 5	> 5	change in vivo at 0.1 ppm [3]: > 5%
COC(=O)c1cc2ccccc2[nH]1 [Compound 13]			Relative value of length of seminal root (%-untreated control plot) [2]: >5%
COc1ccc(NC(=O)c2cc3cc(C(F)(F)F)ccc3[nH]2)c(OC)c1 [Compound 10, N-(2,4-dimethoxyphenyl)-5-trifluoromethylindole-2-carboxamide]		> 5	
Nc1c(C(=O)O)oc2ccc(C(F)(F)F)cc12 [Compound 49]	> 5	> 5	
COC(=O)c1nc2cccnc2n1C [Compound 26, methyl 3-methyl-3H-imidazo[4,5-b]pyridine-2-carboxylate]		> 5	
COC(=O)c1oc2ccccc2c1NS(=O)(=O)c1ccccc1 [Compound 61]	> 5	> 5	change in vivo at 0.1 ppm [3]: > 5%
O=C(O)c1cc2ccc(C(F)(F)F)cc2o1 [Compound 47]	> 5	> 5	change in vivo at 0.1 ppm [3]: > 5%
Cn1c(C(=O)O)cc2ccccc21 [Compound 14]			Relative value of length of seminal root (%-untreated control plot) [1]: >5%
COC(=O)c1nc2ccc(C(F)(F)F)cc2n1C [Compound 25, methyl 1-methyl-6-trifluoromethylbenzimidazole-2-carboxylate]		> 5	
COC(=O)c1oc2ccccc2c1O [Compound 35]	> 5	> 5	
CCOC(=O)c1cc2cccc(C(F)(F)F)c2[nH]1 [Compound 12]			Relative value of length of seminal root (%-untreated control plot) [1]: >5%
COC(=O)c1nc2ccccc2[nH]1 [Compound 19]			Relative value of length of seminal root (%-untreated control plot) [2]: >5%
O=C(Oc1ccccc1)c1oc2ccc(C(F)(F)F)cc2c1C(F)(F)F [Compound 72]			change in vivo at 0.1 ppm [3]: > 5%
COC(=O)c1oc2ccccc2c1N(C(=O)C(F)(F)F)C(=O)C(F)(F)F [Compound 38]	> 5	> 5	change in vivo at 0.1 ppm [3]: > 5%
O=C(O)c1cc2cccc(C(F)(F)F)c2[nH]1 [Compound 11]			Relative value of length of seminal root (%-untreated control plot) [1]: >5%
